Results: article PMC4468202, “Improved Visualization and Specific Binding for Metabotropic Glutamate Receptor Subtype 1 (mGluR1) Using [^11C]ITMM with Ultra-High Specific Activity in Small-Animal PET” (PLoS ONE, 2015)
“And” between values parts separate entries of the source, which are not always exact repeats. Equal entries are not always repeated.

Target: mGluR1 (Rattus norvegicus, UniProt P23385)
Test: Two-tissue compartment model (2TCM) kinetic analysis of PET data
Type: in vivo
Set-up: from tissue; host or cells: living SD rat brain (in vivo PET)
Procedure: Kinetic analysis of [^11C]ITMM was performed using the two-tissue compartment model (2TCM). The compartments correspond to the radioactivity concentrations of unchanged radioprobe in the plasma (C P), free and non-specifically bound radioprobe (C 1), and radioprobe specifically bound to receptors (C 2). The rate constants K 1 and k 2 correspond to the influx and outflux rates of the radioprobe across the blood-brain barrier. The rate constants k 3 and k 4 correspond to the rates of radioprobe transfer between the C 1 and C 2 compartments. The blood volume fraction (vB) in the rat brain was fixed at 2% [28]. The four rate constants of the 2TCM were obtained by a nonlinear least squares fitting technique, using PMOD version 3.4 (PMOD Technologies).
The distribution of [^11C]ITMM in free or tissue compartments was described using the concept of free ligand distribution volume (DV f) or V T, which was defined by the following equations: DVf=K1/k2 (1) VT=DVf(1+k3/k4) (2)
The nondisplacable binding potential (BP ND) is defined using the index of specific bindings of the radioprobe, meaning the receptor density (B max) to binding affinity (K D) ratio, which corresponds with the ratio of k 3 to k 4 in the 2TCM [26]. The BP ND is defined as follows: BPND=fND⋅Bmax/KD=k3/k4 (3) Here, f ND represents the tissue-free fraction of radioprobe in the nondisplacable compartment. Although the fraction of radioprobe that is unbound to plasma proteins was not measured in the present study, the value of f ND is close to 1.0 [29].

[1] = cingulate cortex, conventional SA
[2] = cingulate cortex, ultra-high SA
[3] = substantia nigra, conventional SA
[4] = substantia nigra, ultra-high SA

mGluR1, sequence (P23385 19-1199): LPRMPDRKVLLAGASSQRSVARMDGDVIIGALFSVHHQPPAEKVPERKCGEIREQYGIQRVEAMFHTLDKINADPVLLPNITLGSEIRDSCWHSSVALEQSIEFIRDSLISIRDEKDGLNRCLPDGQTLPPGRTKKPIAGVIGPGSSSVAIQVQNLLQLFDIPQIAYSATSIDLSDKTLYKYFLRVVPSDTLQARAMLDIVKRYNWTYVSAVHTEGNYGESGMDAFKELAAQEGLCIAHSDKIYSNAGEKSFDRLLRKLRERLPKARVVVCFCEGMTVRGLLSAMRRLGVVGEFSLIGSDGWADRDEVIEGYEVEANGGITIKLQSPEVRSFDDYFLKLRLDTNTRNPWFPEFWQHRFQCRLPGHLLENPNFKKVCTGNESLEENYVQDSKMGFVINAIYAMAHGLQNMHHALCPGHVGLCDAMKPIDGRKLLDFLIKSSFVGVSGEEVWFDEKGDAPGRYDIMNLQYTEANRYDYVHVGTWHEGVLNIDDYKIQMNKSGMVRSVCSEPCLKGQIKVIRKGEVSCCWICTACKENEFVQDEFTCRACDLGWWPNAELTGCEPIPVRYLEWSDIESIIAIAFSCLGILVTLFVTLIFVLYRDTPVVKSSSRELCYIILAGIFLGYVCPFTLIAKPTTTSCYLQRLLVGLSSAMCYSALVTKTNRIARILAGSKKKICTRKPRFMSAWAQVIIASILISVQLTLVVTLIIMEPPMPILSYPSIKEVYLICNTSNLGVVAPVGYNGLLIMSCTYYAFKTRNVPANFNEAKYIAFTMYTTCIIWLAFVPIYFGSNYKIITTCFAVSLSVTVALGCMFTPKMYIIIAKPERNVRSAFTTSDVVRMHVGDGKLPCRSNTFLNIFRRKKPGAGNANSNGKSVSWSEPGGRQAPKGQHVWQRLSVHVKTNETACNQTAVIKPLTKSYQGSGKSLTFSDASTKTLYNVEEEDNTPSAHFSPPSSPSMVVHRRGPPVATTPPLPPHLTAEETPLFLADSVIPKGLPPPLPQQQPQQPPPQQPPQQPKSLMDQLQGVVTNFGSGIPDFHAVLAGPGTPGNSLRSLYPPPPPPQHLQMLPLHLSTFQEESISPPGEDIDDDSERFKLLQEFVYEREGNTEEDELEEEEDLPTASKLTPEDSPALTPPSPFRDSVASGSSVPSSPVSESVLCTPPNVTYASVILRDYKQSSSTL

SMILES: CC(C)Nc1cc(-c2csc(N(C)C(=O)c3ccc(O[11CH3])cc3)n2)ncn1 [[^11C]ITMM, N-[4-[6-(isopropylamino)pyrimidin-4-yl]-1,3-thiazol-2-yl]-4-[^11C]methoxy-N-methyl-benzamide]
- BP ND (k 3/k 4) (cerebellum, conventional SA): 33.2 ± 1.4
- DV f (K 1/k 2) (cerebellum, conventional SA): 0.429 ± 0.020
- K 1 (cerebellum, conventional SA): 0.344 ± 0.010 mL/cm^3/min
- V T (cerebellum, conventional SA): 14.56 ± 0.50 mL/cm^3
- k 2 (cerebellum, conventional SA): 0.811 ± 0.045 min⁻¹
- k 3 (cerebellum, conventional SA): 0.619 ± 0.035 min⁻¹
- k 4 (cerebellum, conventional SA): 0.019 ± 0.001 min⁻¹
- BP ND (k 3/k 4) (cerebellum, ultra-high SA): 48.9 ± 2.6
- DV f (K 1/k 2) (cerebellum, ultra-high SA): 0.336 ± 0.020
- K 1 (cerebellum, ultra-high SA): 0.366 ± 0.019 mL/cm^3/min
- V T (cerebellum, ultra-high SA): 16.69 ± 0.92 mL/cm^3
- k 2 (cerebellum, ultra-high SA): 1.112 ± 0.098 min⁻¹
- k 3 (cerebellum, ultra-high SA): 0.799 ± 0.035 min⁻¹
- k 4 (cerebellum, ultra-high SA): 0.016 ± 0.000 min⁻¹
- BP ND (k 3/k 4) [1]: 21.7 ± 1.2
- DV f (K 1/k 2) [1]: 0.302 ± 0.021
- K 1 [1]: 0.312 ± 0.008 mL/cm^3/min
- V T [1]: 6.76 ± 0.25 mL/cm^3
- k 2 [1]: 1.062 ± 0.086 min⁻¹
- k 3 [1]: 0.643 ± 0.053 min⁻¹
- k 4 [1]: 0.030 ± 0.001 min⁻¹
- BP ND (k 3/k 4) [2]: 32.8 ± 1.9
- DV f (K 1/k 2) [2]: 0.257 ± 0.008
- K 1 [2]: 0.339 ± 0.019 mL/cm^3/min
- V T [2]: 8.66 ± 0.45 mL/cm^3
- k 2 [2]: 1.317 ± 0.054 min⁻¹
- k 3 [2]: 0.740 ± 0.036 min⁻¹
- k 4 [2]: 0.023 ± 0.001 min⁻¹
- BP ND (k 3/k 4) (hippocampus, conventional SA): 24.8 ± 1.8
- DV f (K 1/k 2) (hippocampus, conventional SA): 0.292 ± 0.011
- K 1 (hippocampus, conventional SA): 0.303 ± 0.015 mL/cm^3/min
- V T (hippocampus, conventional SA): 7.44 ± 0.27 mL/cm^3
- k 2 (hippocampus, conventional SA): 1.052 ± 0.082 min⁻¹
- k 3 (hippocampus, conventional SA): 0.644 ± 0.051 min⁻¹
- k 4 (hippocampus, conventional SA): 0.026 ± 0.001 min⁻¹
- BP ND (k 3/k 4) (hippocampus, ultra-high SA): 38.2 ± 1.5
- DV f (K 1/k 2) (hippocampus, ultra-high SA): 0.228 ± 0.008
- K 1 (hippocampus, ultra-high SA): 0.320 ± 0.020 mL/cm^3/min
- V T (hippocampus, ultra-high SA): 8.93 ± 0.47 mL/cm^3
- k 2 (hippocampus, ultra-high SA): 1.415 ± 0.107 min⁻¹
- k 3 (hippocampus, ultra-high SA): 0.784 ± 0.027 min⁻¹
- k 4 (hippocampus, ultra-high SA): 0.021 ± 0.000 min⁻¹
- BP ND (k 3/k 4) (pons, conventional SA): 8.3 ± 0.5
- DV f (K 1/k 2) (pons, conventional SA): 0.224 ± 0.011
- K 1 (pons, conventional SA): 0.271 ± 0.015 mL/cm^3/min
- V T (pons, conventional SA): 2.06 ± 0.06 mL/cm^3
- k 2 (pons, conventional SA): 1.237 ± 0.122 min⁻¹
- k 3 (pons, conventional SA): 0.256 ± 0.022 min⁻¹
- k 4 (pons, conventional SA): 0.031 ± 0.001 min⁻¹
- BP ND (k 3/k 4) (pons, ultra-high SA): 9.8 ± 0.5
- DV f (K 1/k 2) (pons, ultra-high SA): 0.221 ± 0.015
- K 1 (pons, ultra-high SA): 0.244 ± 0.004 mL/cm^3/min
- V T (pons, ultra-high SA): 2.39 ± 0.23 mL/cm^3
- k 2 (pons, ultra-high SA): 1.131 ± 0.084 min⁻¹
- k 3 (pons, ultra-high SA): 0.253 ± 0.011 min⁻¹
- k 4 (pons, ultra-high SA): 0.026 ± 0.001 min⁻¹
- BP ND (k 3/k 4) (striatum, conventional SA): 20.0 ± 1.1
- DV f (K 1/k 2) (striatum, conventional SA): 0.367 ± 0.015
- K 1 (striatum, conventional SA): 0.278 ± 0.014 mL/cm^3/min
- V T (striatum, conventional SA): 7.7 mL/cm^3 and 7.66 ± 0.28 mL/cm^3
- k 2 (striatum, conventional SA): 0.769 ± 0.061 min⁻¹
- k 3 (striatum, conventional SA): 0.612 ± 0.036 min⁻¹
- k 4 (striatum, conventional SA): 0.031 ± 0.001 min⁻¹
- BP ND (k 3/k 4) (striatum, ultra-high SA): 30.6 ± 1.8
- DV f (K 1/k 2) (striatum, ultra-high SA): 0.311 ± 0.021
- K 1 (striatum, ultra-high SA): 0.294 ± 0.014 mL/cm^3/min
- V T (striatum, ultra-high SA): 9.7 mL/cm^3 and 9.66 ± 0.41 mL/cm^3
- k 2 (striatum, ultra-high SA): 0.972 ± 0.083 min⁻¹
- k 3 (striatum, ultra-high SA): 0.722 ± 0.043 min⁻¹
- k 4 (striatum, ultra-high SA): 0.024 ± 0.001 min⁻¹
- BP ND (k 3/k 4) [3]: 16.6 ± 1.6
- DV f (K 1/k 2) [3]: 0.378 ± 0.030
- K 1 [3]: 0.298 ± 0.021 mL/cm^3/min
- V T [3]: 6.4 mL/cm^3 and 6.44 ± 0.22 mL/cm^3
- k 2 [3]: 0.840 ± 0.128 min⁻¹
- k 3 [3]: 0.470 ± 0.031 min⁻¹
- k 4 [3]: 0.029 ± 0.001 min⁻¹
- BP ND (k 3/k 4) [4]: 26.1 ± 2.0
- DV f (K 1/k 2) [4]: 0.321 ± 0.023
- K 1 [4]: 0.292 ± 0.012 mL/cm^3/min
- V T [4]: 8.5 mL/cm^3 and 8.53 ± 0.47 mL/cm^3
- k 2 [4]: 0.933 ± 0.075 min⁻¹
- k 3 [4]: 0.602 ± 0.036 min⁻¹
- k 4 [4]: 0.023 ± 0.001 min⁻¹
- BP ND (k 3/k 4) (thalamus, conventional SA): 25.5 ± 1.2
- DV f (K 1/k 2) (thalamus, conventional SA): 0.347 ± 0.018
- K 1 (thalamus, conventional SA): 0.303 ± 0.012 mL/cm^3/min
- V T (thalamus, conventional SA): 9.1 mL/cm^3 and 9.12 ± 0.37 mL/cm^3
- k 2 (thalamus, conventional SA): 0.886 ± 0.064 min⁻¹
- k 3 (thalamus, conventional SA): 0.669 ± 0.033 min⁻¹
- k 4 (thalamus, conventional SA): 0.026 ± 0.001 min⁻¹
- BP ND (k 3/k 4) (thalamus, ultra-high SA): 38.5 ± 1.1
- DV f (K 1/k 2) (thalamus, ultra-high SA): 0.284 ± 0.018
- K 1 (thalamus, ultra-high SA): 0.313 ± 0.016 mL/cm^3/min
- V T (thalamus, ultra-high SA): 11.2 mL/cm^3 and 11.15 ± 0.51 mL/cm^3
- k 2 (thalamus, ultra-high SA): 1.125 ± 0.088 min⁻¹
- k 3 (thalamus, ultra-high SA): 0.817 ± 0.025 min⁻¹
- k 4 (thalamus, ultra-high SA): 0.021 ± 0.000 min⁻¹
